Experimental data as given in ChEMBL document CHEMBL4043287, “A Structure-Activity Relationship Study of Bitopic N6-Substituted Adenosine Derivatives as Biased Adenosine A1 Receptor Agonists” (J Med Chem, 2018).
Activity calls are given as the source filed them. The calls are words filed in the database; no cut-off is given here.

What was measured:
Adenosine receptor A3 = target: T1, Adenosine receptor A3 (Homo sapiens, UniProt P0DMS8); assay: Agonist activity at human A3AR expressed in FlpIn-CHO cells assessed as inhibition of forskolin-stimulated cAMP accumulation preincubated for 10 mins followed by forskolin addition measured after 30 mins by Alphascreen assay
T1 sequence (P0DMS8 whole entry): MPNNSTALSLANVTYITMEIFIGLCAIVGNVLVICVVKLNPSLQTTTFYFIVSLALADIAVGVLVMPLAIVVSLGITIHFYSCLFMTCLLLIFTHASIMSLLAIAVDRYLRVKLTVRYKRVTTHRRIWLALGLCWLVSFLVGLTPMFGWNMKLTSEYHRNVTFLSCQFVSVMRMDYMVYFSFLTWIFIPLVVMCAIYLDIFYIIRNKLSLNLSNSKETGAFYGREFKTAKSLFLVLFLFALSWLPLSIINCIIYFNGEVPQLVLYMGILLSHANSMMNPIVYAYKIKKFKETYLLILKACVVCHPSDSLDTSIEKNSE

Adenosine receptor A1 [1] = target: T2, Adenosine receptor A1 (Homo sapiens, UniProt P30542); assay: Agonist activity at human A1AR expressed in FlpIn-CHO cells assessed as intracellular calcium mobilization by measuring agonist transduction coefficient by Fluo-4 dye-based fluorescence assay; assay type: cell-based
T2 sequence (P30542 whole entry): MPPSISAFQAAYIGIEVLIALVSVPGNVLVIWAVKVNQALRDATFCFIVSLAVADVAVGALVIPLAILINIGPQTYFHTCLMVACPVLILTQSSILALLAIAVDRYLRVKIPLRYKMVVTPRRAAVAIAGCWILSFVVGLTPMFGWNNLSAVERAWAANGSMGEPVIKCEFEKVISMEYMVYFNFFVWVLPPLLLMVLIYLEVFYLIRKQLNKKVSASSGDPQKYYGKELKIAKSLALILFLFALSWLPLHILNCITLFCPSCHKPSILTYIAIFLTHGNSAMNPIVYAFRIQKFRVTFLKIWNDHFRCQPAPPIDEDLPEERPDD

[2] = target: T3, Adenosine receptor A2b (Homo sapiens) (UniProt P29275); assay: Agonist activity at human A2BAR expressed in FlpIn-CHO cells assessed as […] cAMP accumulation preincubated for 40 mins followed by forskolin addition measured after 30 mins by Alphascreen assay relative to control; assay type: functional, cell-based
T3 sequence (whole entry): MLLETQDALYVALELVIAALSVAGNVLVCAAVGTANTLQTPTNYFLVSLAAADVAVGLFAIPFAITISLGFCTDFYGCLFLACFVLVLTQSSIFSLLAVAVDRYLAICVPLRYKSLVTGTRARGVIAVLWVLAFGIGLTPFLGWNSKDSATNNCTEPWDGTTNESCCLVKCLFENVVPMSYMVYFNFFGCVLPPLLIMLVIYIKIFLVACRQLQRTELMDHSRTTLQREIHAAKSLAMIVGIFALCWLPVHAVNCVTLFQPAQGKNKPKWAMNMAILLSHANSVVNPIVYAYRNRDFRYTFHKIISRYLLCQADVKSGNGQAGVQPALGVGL

[3] = target: T4, Adenosine receptor A3 (Homo sapiens) (UniProt P0DMS8); assay: Agonist activity at human A3AR expressed in FlpIn-CHO cells assessed as inhibition of forskolin-stimulated cAMP accumulation preincubated for 10 mins followed by forskolin addition measured after 30 mins by Alphascreen assay relative to control; assay type: functional, cell-based
T4 sequence (whole entry): T1 sequence (P0DMS8 whole entry)

Adenosine receptor A2b = target: T5, Adenosine receptor A2b (Homo sapiens, UniProt P29275); assay: Agonist activity at human A2BAR expressed in FlpIn-CHO cells assessed as […] cAMP accumulation preincubated for 40 mins followed by forskolin addition measured after 30 mins by Alphascreen assay; assay type: functional, cell-based
T5 sequence (P29275 whole entry): T3 sequence (whole entry)

Adenosine receptor A1 [4] = target: T2, Adenosine receptor A1; assay: Agonist activity at human A1AR expressed in FlpIn-CHO cells assessed as intracellular calcium mobilization by Fluo-4 dye-based fluorescence assay; assay type: cell-based
Adenosine receptor A1 [5] = target: T2, Adenosine receptor A1; assay: Agonist activity at human A1AR expressed in FlpIn-CHO cells assessed as intracellular calcium mobilization by Fluo-4 dye-based fluorescence assay relative to control; assay type: cell-based
Adenosine receptor A2a = Adenosine receptor A2a (Homo sapiens, UniProt P29274); assay: Agonist activity at human A2A-AR expressed in FlpIn-CHO cells assessed as inhibition of forskolin-stimulated cAMP accumulation preincubated for 40 mins followed by forskolin addition measured after 30 mins by Alphascreen assay
Adenosine receptor A2a, sequence (P29274 whole entry): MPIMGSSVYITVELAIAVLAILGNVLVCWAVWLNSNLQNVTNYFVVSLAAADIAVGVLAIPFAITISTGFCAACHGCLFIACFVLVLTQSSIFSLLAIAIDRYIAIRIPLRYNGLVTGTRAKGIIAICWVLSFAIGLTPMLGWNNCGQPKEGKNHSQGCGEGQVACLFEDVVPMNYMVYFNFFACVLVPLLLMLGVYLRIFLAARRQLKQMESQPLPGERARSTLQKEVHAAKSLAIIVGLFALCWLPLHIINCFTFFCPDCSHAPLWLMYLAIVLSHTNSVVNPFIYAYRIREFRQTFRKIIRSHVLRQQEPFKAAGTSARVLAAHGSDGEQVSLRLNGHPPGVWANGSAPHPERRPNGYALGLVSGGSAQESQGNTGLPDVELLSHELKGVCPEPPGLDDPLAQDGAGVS

Adenosine receptor A1 [6] = target: T2, Adenosine receptor A1; assay: Agonist activity at human A1AR expressed in FlpIn-CHO cells assessed as inhibition of forskolin-stimulated cAMP accumulation preincubated for 10 mins followed by forskolin addition measured after 30 mins by Alphascreen assay; assay type: functional, cell-based
[7] = target: T4, Adenosine receptor A3 (Homo sapiens); assay: Agonist activity at human A3AR expressed in FlpIn-CHO cells assessed as inhibition of forskolin-stimulated cAMP accumulation up to 10 uM preincubated for 10 mins followed by forskolin addition measured after 30 mins by Alphascreen assay; assay type: functional, cell-based

Structure (SMILES) | EC50 (Adenosine receptor A3) [µM] | log(activity) (Adenosine receptor A1 [1]) | Emax [2] [%] | Emax [3] [%] | EC50 (Adenosine receptor A2b) [µM] | EC50 (Adenosine receptor A1 [4]) [µM] | Emax (Adenosine receptor A1 [5]) [%] | EC50 (Adenosine receptor A2a) [µM] | EC50 (Adenosine receptor A1 [6]) [µM] | inhibition [7]
Nc1sc(-c2ccc(C(=O)NCCCCCCCNc3ncnc4c3ncn4[C@@H]3O[C@H](CO)[C@@H](O)[C@H]3O)cc2)c(-c2cccc(C(F)(F)F)c2)c1C(=O)c1ccccc1 | 0.331 | 5.58 | 38 | 56 | 0.468 | 0.2 | 28 | 4.9 | 0.0229 | –
CC(=O)Nc1sc(-c2ccc(C(=O)NCCCCCCNc3ncnc4c3ncn4[C@@H]3O[C@H](CO)[C@@H](O)[C@H]3O)cc2)c(-c2cccc(C(F)(F)F)c2)c1C(=O)c1ccccc1 | 0.447 | 5.02 | 44 | 60 | 0.617 | 0.891 | 20 | 2.34 | 0.138 | –
O=C(NCCCCCCNc1ncnc2c1ncn2[C@@H]1O[C@H](CO)[C@@H](O)[C@H]1O)c1cccc(-c2cc(C(=O)c3ccccc3)cs2)c1 | 0.407 | 6.91 | 27 | 74 | 0.158 | 0.0871 | 39 | 0.437 | 0.138 | –
O=C(NCCCCCCNc1ncnc2c1ncn2[C@@H]1O[C@H](CO)[C@@H](O)[C@H]1O)c1ccc(-c2sccc2-c2cccc(C(F)(F)F)c2)cc1 | 0.347 | 7.03 | 44 | 26 | 0.0912 | 0.0776 | 49 | 0.646 | 0.17 | –
Nc1sc(-c2ccc(C(=O)NCCCCCCNc3ncnc4c3ncn4[C@@H]3O[C@H](CO)[C@@H](O)[C@H]3O)cc2)c(-c2cccc(C(F)(F)F)c2)c1C(=O)c1ccccc1 | – | – | – | – | – | – | – | 2.29 | – | –
Nc1sc(-c2ccccc2C(=O)NCCCCCCNc2ncnc3c2ncn3[C@@H]2O[C@H](CO)[C@@H](O)[C@H]2O)c(-c2cccc(C(F)(F)F)c2)c1C(=O)c1ccccc1 | 0.282 | 5.74 | 46 | 103 | 0.288 | 1.35 | 43 | – | 1.29 | –
CCNC(=O)[C@H]1O[C@@H](n2cnc3c(NCCCCCCNC(=O)c4ccc(-c5sc(N)c(C(=O)c6ccccc6)c5-c5cccc(C(F)(F)F)c5)cc4)ncnc32)[C@H](O)[C@@H]1O | 1.41 | 6.33 | 38 | 75 | 0.0759 | 0.0562 | 16 | 0.0562 | 0.0977 | –
O=C(NCCCCCCNc1ncnc2c1ncn2[C@@H]1O[C@H](CO)[C@@H](O)[C@H]1O)c1ccc(-c2scc(C(=O)c3ccccc3)c2-c2cccc(C(F)(F)F)c2)cc1 | > 1 | 5.74 | 49 | – | 0.148 | 0.562 | 40 | 2.88 | 0.11 | –
O=C(NCCCCCCNc1ncnc2c1ncn2[C@@H]1O[C@H](CO)[C@@H](O)[C@H]1O)c1cccc(-c2cccs2)c1 | 0.832 | 7.38 | 42 | 107 | 0.0178 | 0.0355 | 49 | 1.32 | 0.234 | –
Nc1cc(-c2cccc(C(F)(F)F)c2)c(-c2ccc(C(=O)NCCCCCCNc3ncnc4c3ncn4[C@@H]3O[C@H](CO)[C@@H](O)[C@H]3O)cc2)s1 | 0.282 | 6.86 | 28 | 58 | 0.447 | 0.11 | 42 | 2.69 | 0.038 | –
Nc1ccc(-c2cccc(C(=O)NCCCCCCNc3ncnc4c3ncn4[C@@H]3O[C@H](CO)[C@@H](O)[C@H]3O)c2)s1 | 0.0646 | 7.4 | 45 | 72 | 0.0603 | 0.0347 | 47 | 1.07 | – | –
Nc1sc(-c2ccc(C(=O)NCCCCCCNc3ncnc4c3ncn4[C@@H]3O[C@H](CO)[C@@H](O)[C@H]3O)cc2)cc1C(=O)c1ccccc1 | 0.447 | 7.43 | 40 | 85 | 0.224 | 0.0295 | 49 | 0.355 | 0.0417 | –
CCNC(=O)[C@H]1O[C@@H](n2cnc3c(N)ncnc32)[C@H](O)[C@@H]1O [NECA] | – | – | – | 97 | – | – | 54 | – | – | –
Nc1sc(-c2ccc(C(=O)NCCCCCNc3ncnc4c3ncn4[C@@H]3O[C@H](CO)[C@@H](O)[C@H]3O)cc2)c(-c2cccc(C(F)(F)F)c2)c1C(=O)c1ccccc1 | > 1 | 6.11 | 52 | – | 0.0631 | 0.0741 | 31 | 3.63 | 0.0955 | –
Nc1sc(-c2ccc(C(=O)NCCCCCCNc3nc(Cl)nc4c3ncn4[C@@H]3O[C@H](CO)[C@@H](O)[C@H]3O)cc2)c(-c2cccc(C(F)(F)F)c2)c1C(=O)c1ccccc1 | – | 6.32 | 39 | – | 0.0186 | 0.135 | 20 | 0.145 | 0.224 | inactive
Nc1sc(-c2cccc(C(=O)NCCCCCCNc3ncnc4c3ncn4[C@@H]3O[C@H](CO)[C@@H](O)[C@H]3O)c2)c(-c2cccc(C(F)(F)F)c2)c1C(=O)c1ccccc1 | 0.123 | 6.98 | 43 | 80 | 0.0355 | 0.0933 | 48 | 0.148 | 0.105 | –
Nc1nc(NCCCCCCNC(=O)c2ccc(-c3sc(N)c(C(=O)c4ccccc4)c3-c3cccc(C(F)(F)F)c3)cc2)c2ncn([C@@H]3O[C@H](CO)[C@@H](O)[C@H]3O)c2n1 | – | 6.15 | 43 | – | 0.0977 | 0.257 | 34 | 0.759 | 1.35 | inactive
